# Molecular target: Proto-oncogene Wnt-3 (Homo sapiens, UniProt P56703)
# Experiment: Inhibition of Wnt3 expressed in mouse L-cells assessed as inhibition of Wnt/catanin signaling pathway by luciferase reporter gene assay
# Sequence of Proto-oncogene Wnt-3 (P56703 whole entry): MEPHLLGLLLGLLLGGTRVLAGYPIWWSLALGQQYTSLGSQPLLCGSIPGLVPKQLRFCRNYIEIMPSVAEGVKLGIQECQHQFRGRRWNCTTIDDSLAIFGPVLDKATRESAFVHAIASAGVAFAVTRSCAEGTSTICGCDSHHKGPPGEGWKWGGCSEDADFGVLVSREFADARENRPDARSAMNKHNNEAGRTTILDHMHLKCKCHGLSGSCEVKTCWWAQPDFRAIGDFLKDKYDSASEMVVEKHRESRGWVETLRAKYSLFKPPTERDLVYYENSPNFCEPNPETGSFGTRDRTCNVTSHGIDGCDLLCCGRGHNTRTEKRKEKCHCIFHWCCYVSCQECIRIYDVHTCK
row,SMILES,EC50
1,"O=C(Nc1ccc(F)cc1)c1ccc(-n2c(O)c3c(c2O)[C@H]2C=C[C@@H]3C2)cc1 [4-((1R,2S,6R,7S)-3,5-Dioxo-4-aza-tricyclo[5.2.1.0*2,6*]dec-8-en-4-yl)-N-(4-fluoro-phenyl)-benzamide]",4 µM
2,"O=C(Nc1ccc(Cl)c(Cl)c1)c1ccc(-n2c(O)c3c(c2O)[C@H]2C=C[C@@H]3C2)cc1 [N-(3,4-Dichloro-phenyl)-4-((1R,2S,6R,7S)-dioxo-4-aza-tricyclo[5.2.1.0*2,6*]dec-8-en-4-yl)-benzamide]",5 µM
3,"O=C(Nc1ccc(Br)c(Br)c1)c1ccc(-n2c(O)c3c(c2O)[C@H]2C=C[C@@H]3C2)cc1 [N-(3,4-Dibromo-phenyl)-4-((1R,2S,6R,7S)-dioxo-4-aza-tricyclo[5.2.1.0*2,6*]dec-8-en-4-yl)-benzamide]",10 µM
4,"O=C(Nc1ccc(F)c(F)c1)c1ccc(-n2c(O)c3c(c2O)[C@H]2C=C[C@@H]3C2)cc1 [N-(3,4-Difluoro-phenyl)-4-((1R,2S,6R,7S)-dioxo-4-aza-tricyclo[5.2.1.0*2,6*]dec-8-en-4-yl)-benzamide]",3 µM
5,"COc1cc(C(=O)Nc2cccc3cccnc23)ccc1-n1c(O)c2c(c1O)[C@H]1C=C[C@@H]2C1 [4-((1R,2S,6R,7S)-3,5-Dioxo-4-aza-tricyclo[5.2.1.0*2,6*]dec-8-en-4-yl)-3-methoxy-N-quinolin-8-yl-benzamide]",> 25 µM
6,"Cc1ccnc2c(NC(=O)[C@H]3CC[C@H](N4C(=O)[C@@H]5[C@H](C4=O)[C@@H]4C=C[C@H]5C4)CC3)cccc12 [4-((1R,2S,6R,7S)-3,5-Dioxo-4-aza-tricyclo[5.2.1.0*2,6*]dec-8-en-4-yl)-cyclohexanecarboxylic acid(4-methyl-quinolin-8-yl)-amide]",1 µM
7,"O=C(Nc1ccc(Cl)cc1Cl)c1ccc(-n2c(O)c3c(c2O)[C@H]2C=C[C@@H]3C2)cc1 [N-(2,4-Dichloro-phenyl)-4-((1R,2S,6R,7S)-dioxo-4-aza-tricyclo[5.2.1.0*2,6*]dec-8-en-4-yl)-benzamide]",10 µM
8,"O=C(Nc1ccccc1Cl)c1ccc(-n2c(O)c3c(c2O)[C@H]2C=C[C@@H]3C2)cc1 [N-(2-Chloro-phenyl)-4-((1R,2S,6R,7S)-3,5-dioxo-4-aza-tricyclo[5.2.1.0*2,6*]dec-8-en-4-yl)-benzamide]",> 25 µM
9,"O=C(Nc1cc(F)ccc1F)c1ccc(-n2c(O)c3c(c2O)[C@H]2C=C[C@@H]3C2)cc1 [N-(2,5-Difluoro-phenyl)-4-((1R,2S,6R,7S)-dioxo-4-aza-tricyclo[5.2.1.0*2,6*]dec-8-en-4-yl)-benzamide]",> 25 µM
10,"Cc1ccc2cccnc2c1NC(=O)c1ccc(-n2c(O)c3c(c2O)[C@H]2C=C[C@@H]3C2)cc1 [4-((1R,2S,6R,7S)-3,5-Dioxo-4-aza-tricyclo[5.2.1.0*2,6*]dec-8-en-4-yl)-N-(7-methyl-quinolin-8-yl)-benzamide]",0.8 µM
11,"O=C(Nc1c(F)cccc1F)c1ccc(-n2c(O)c3c(c2O)[C@H]2C=C[C@@H]3C2)cc1 [N-(2,6-Difluoro-phenyl)-4-((1R,2S,6R,7S)-dioxo-4-aza-tricyclo[5.2.1.0*2,6*]dec-8-en-4-yl)-benzamide]",> 25 µM
12,"O=C(Nc1ccc(-n2c(O)c3c(c2O)[C@H]2C=C[C@@H]3C2)cc1)Nc1cccc2cccnc12 [1-[4-((1R,2S,6R,7S)-3,5-Dioxo-4-aza-tricyclo[5.2.1.0*2,6*]dec-8-en-4-yl)-phenyl]-3-quinolin-8-yl-urea]",> 25 µM
13,"O=C(N[C@H]1CCCC[C@@H]1O)c1ccc(-n2c(O)c3c(c2O)[C@H]2C=C[C@@H]3C2)cc1 [trans-4-((1R,2S,6R,7S)-3,5-Dioxo-4-aza-tricyclo[5.2.1.0*2,6*]dec-8-en-4-yl)-N-((2-hydroxy-cyclohexyl)-benzamide]",> 25 µM
14,"O=C(NCc1ccncc1)c1ccc(-n2c(O)c3c(c2O)[C@H]2C=C[C@@H]3C2)cc1 [4-((1R,2S,6R,7S)-3,5-Dioxo-4-aza-tricyclo[5.2.1.0*2,6*]dec-8-en-4-yl)-N-pyridin-4-ylmethyl-benzamide]",10 µM
15,"Cc1cc(C(=O)Nc2cccc3cccnc23)ccc1-n1c(O)c2c(c1O)[C@H]1C=C[C@@H]2C1 [4-((1R,2S,6R,7S)-3,5-Dioxo-4-aza-tricyclo[5.2.1.0*2,6*]dec-8-en-4-yl)-3-methyl-N-quinolin-8-yl-benzamide]",> 25 µM
16,"O=C(Nc1cccc(F)c1F)c1ccc(-n2c(O)c3c(c2O)[C@H]2C=C[C@@H]3C2)cc1 [N-(2,3-Difluoro-phenyl)-4-((1R,2S,6R,7S)-dioxo-4-aza-tricyclo[5.2.1.0*2,6*]dec-8-en-4-yl)-benzamide]",> 25 µM
17,"O=C(NCc1ccccn1)c1ccc(-n2c(O)c3c(c2O)[C@H]2C=C[C@@H]3C2)cc1 [4-((1R,2S,6R,7S)-3,5-Dioxo-4-aza-tricyclo[5.2.1.0*2,6*]dec-8-en-4-yl)-N-pyridin-2-ylmethyl-benzamide]",> 25 µM
18,"O=C(Nc1cc(F)cc(F)c1)c1ccc(-n2c(O)c3c(c2O)[C@H]2C=C[C@@H]3C2)cc1 [N-(3,5-Difluoro-phenyl)-4-((1R,2S,6R,7S)-dioxo-4-aza-tricyclo[5.2.1.0*2,6*]dec-8-en-4-yl)-benzamide]",> 25 µM

row,SMILES,EC50
1,"Cc1ccc2cccnc2c1NC(=O)[C@H]1CC[C@H](CN2C(=O)[C@@H]3[C@H](C2=O)[C@@H]2C=C[C@H]3C2)CC1 [4-((1R,2S,6R,7S)-3,5-Dioxo-4-aza-tricyclo[5.2.1.0*2,6*]dec-8-en-4-ylmethyl)-cyclohexanecarboxylic acid(7-methyl-quinolin-8-yl)-amide]",10 µM
2,"O=C(Nc1ccc(Cl)cc1)c1ccc(-n2c(O)c3c(c2O)[C@H]2C=C[C@@H]3C2)cc1 [N-(4-Chloro-phenyl)-4-((1R,2S,6R,7S)-3,5-dioxo-4-aza-tricyclo[5.2.1.0*2,6*]dec-8-en-4-yl)-benzamide]",3 µM
3,"CO[C@@H]1CCCC[C@H]1NC(=O)c1ccc(-n2c(O)c3c(c2O)[C@H]2C=C[C@@H]3C2)cc1 [trans-4-((1R,2S,6R,7S)-3,5-Dioxo-4-aza-tricyclo[5.2.1.0*2,6*]dec-8-en-4-yl)-N-(2-methoxy-cyclohexyl)-benzamide]",2 µM
4,"O=C(Nc1cccc2cccnc12)c1ccc(-n2c(O)c3c(c2O)[C@H]2C=C[C@@H]3C2)c(Cl)c1 [3-Chloro-4-((1R,2S,6R,7S)-3,5-dioxo-4-aza-tricyclo[5.2.1.0*2,6*]dec-8-en-4-yl)-N-quinolin-8-yl-benzamide]",> 25 µM
5,"O=C(NCc1ccccc1)c1ccc(-n2c(O)c3c(c2O)[C@H]2C=C[C@@H]3C2)cc1 [N-Benzyl-4-((1R,2S,6R,7S)-3,5-dioxo-4-aza-tricyclo[5.2.1.0*2,6*]dec-8-en-4-yl)-benzamide]",20 µM
6,"O=C(Nc1cccc(Br)c1)c1ccc(-n2c(O)c3c(c2O)[C@H]2C=C[C@@H]3C2)cc1 [N-(3-Bromo-phenyl)-4-((1R,2S,6R,7S)-3,5-dioxo-4-aza-tricyclo[5.2.1.0*2,6*]dec-8-en-4-yl)-benzamide]",9 µM
7,"COc1cc(-n2c(O)c3c(c2O)[C@H]2C=C[C@@H]3C2)ccc1C(=O)Nc1cccc2cccnc12 [4-((1R,2S,6R,7S)-3,5-Dioxo-4-aza-tricyclo[5.2.1.0*2,6*]dec-8-en-4-yl)-2-methoxy-N-quinolin-8-yl-benzamide]",> 25 µM
8,"O=C1[C@@H]2[C@H](C(=O)N1[C@H]1CC[C@H](C(=O)Nc3cccc4cccnc34)CC1)[C@@H]1C=C[C@H]2C1 [4-((1R,2S,6R,7S)-3,5-Dioxo-4-aza-tricyclo[5.2.1.0*2,6*]dec-8-en-4-yl)-cyclohexanecarboxylic acid quinolin-8-ylamide]",0.4 µM
9,"O=C(Nc1cccc(Cl)c1)c1ccc(-n2c(O)c3c(c2O)[C@H]2C=C[C@@H]3C2)cc1 [N-(3-Chloro-phenyl)-4-((1R,2S,6R,7S)-3,5-dioxo-4-aza-tricyclo[5.2.1.0*2,6*]dec-8-en-4-yl)-benzamide]",> 25 µM
10,"CN(C(=O)c1ccc(-n2c(O)c3c(c2O)[C@H]2C=C[C@@H]3C2)cc1)c1cccc2cccnc12 [4-((1R,2S,6R,7S)-3,5-Dioxo-4-aza-tricyclo[5.2.1.0*2,6*]dec-8-en-4-yl)-N-methyl-N-quinolin-8-yl-benzamide]",> 25 µM
11,"O=C(NC1CCCCC1)c1ccc(-n2c(O)c3c(c2O)[C@H]2C=C[C@@H]3C2)cc1 [N-Cyclohexyl-4-((1R,2S,6R,7S)-3,5-dioxo-4-aza-tricyclo[5.2.1.0*2,6*]dec-8-en-4-yl)-benzamide]",> 25 µM
12,"O=C(Nc1ccccc1)c1ccc(-n2c(O)c3c(c2O)[C@H]2C=C[C@H]3C2)cc1 [4-((1R,2S,6R,7R)-3,5-Dioxo-4-aza-tricyclo[5.2.1.0*2,6*]dec-8-en-4-yl)-N-phenyl-benzamide]",> 25 µM
13,"O=C(Nc1ccc(Br)cc1Br)c1ccc(-n2c(O)c3c(c2O)[C@H]2C=C[C@@H]3C2)cc1 [N-(2,4-Dibromo-phenyl)-4-((1R,2S,6R,7S)-dioxo-4-aza-tricyclo[5.2.1.0*2,6*]dec-8-en-4-yl)-benzamide]",> 25 µM
14,"O=C(Nc1ccc(F)cc1F)c1ccc(-n2c(O)c3c(c2O)[C@H]2C=C[C@@H]3C2)cc1 [N-(2,4-Difluoro-phenyl)-4-((1R,2S,6R,7S)-dioxo-4-aza-tricyclo[5.2.1.0*2,6*]dec-8-en-4-yl)-benzamide]",9 µM
15,"O=C(Nc1ccc(C(F)(F)F)cc1)c1ccc(-n2c(O)c3c(c2O)[C@H]2C=C[C@@H]3C2)cc1 [4-((1R,2S,6R,7S)-3,5-Dioxo-4-aza-tricyclo[5.2.1.0*2,6*]dec-8-en-4-yl)-N-(4-trifluoromethyl-phenyl)-benzamide]",> 25 µM
16,"O=C(Nc1cccc(F)c1)c1ccc(-n2c(O)c3c(c2O)[C@H]2C=C[C@@H]3C2)cc1 [4-((1R,2S,6R,7S)-3,5-Dioxo-4-aza-tricyclo[5.2.1.0*2,6*]dec-8-en-4-yl)-N-(3-fluoro-phenyl)-benzamide]",> 25 µM
17,"O=C1[C@@H]2[C@H](C(=O)N1C[C@H]1CC[C@H](C(=O)Nc3cccc4cccnc34)CC1)[C@@H]1C=C[C@H]2C1 [4-((1R,2S,6R,7S)-3,5-Dioxo-4-aza-tricyclo[5.2.1.0*2,6*]dec-8-en-4-ylmethyl)-cyclohexanecarboxylic acid quinolin-8-ylamide]",> 25 µM
18,"O=C(NCc1cccnc1)c1ccc(-n2c(O)c3c(c2O)[C@H]2C=C[C@@H]3C2)cc1 [4-((1R,2S,6R,7S)-3,5-Dioxo-4-aza-tricyclo[5.2.1.0*2,6*]dec-8-en-4-yl)-N-pyridin-3-ylmethyl-benzamide]",> 25 µM
